Results published in patent US8586555B2, “Immunomodulatory compositions, formulations, and methods for use thereof” (Dynavax Technologies Corporation, priority 2001, dated 2013).

Tests used:
Assay type in all cases: cell-based
[1] = system: human peripheral blood mononuclear cells (hPBMC); test: human PBMC assay, Example 4 (oligos and PLGA premixed 15 minutes)
Procedure, shortened: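 Human PBMC from healthy donors 28044 and 28045, 2×10^6 cells/mL in RPMI/10% human AB serum, 37° C; all-phosphorothioate oligos at 20 μg/ml, alone or premixed 15 min at room temperature with cationic PLGA (250 μg/ml). After 24 h, IFN-γ and IFN-α in medium measured by ELISA, duplicates.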

[2] = system: human peripheral blood mononuclear cells (hPBMC); test: human PBMC assay, Example 3 (oligo and PLGA added at the same time, 48 well plates); details: for IFN-α / IFN-γ: oligo 20 μg/ml, PLGA 250 μg/ml, 24 hours
Description: Hexameric oligonucleotides were tested for immunomodulatory activity alone and complexed with lactic acid/glycolic acid copolymer microcarrier beads using a human peripheral blood mononuclear cells (hPBMC) assay. Peripheral blood was collected from healthy volunteers by venipuncture using heparinized syringes. Blood was layered onto a FICOLL® (Amersham Pharmacia Biotech) cushion and centrifuged. hPBMCs, located at the FICOLL® interface, were collected, then washed twice with cold phosphate buffered saline (PBS). The cells were resuspended and cultured in 48 well plates at 2×10^6 cells/mL at 37° C. in RPMI 1640 with 10% heat-inactivated human AB serum plus 50 units/mL penicillin, 50 μg/mL streptomycin, 300 μg/mL glutamine, 1 mM sodium pyruvate, and 1×MEM non-essential amino acids (NEAA).
Oligonucleotides were tested as single agents, or in combination with PLGA microspheres (unmodified or cationic). All oligonucleotides contained 100% phosphorothioate linkages and were tested at 20 μg/ml. The PLGA microcarriers were used at 250 μg/ml. When oligos were tested with PLGA microcarriers, the oligo and the microcarriers were added at the same time to the culture. The cells were cultured in the in the presence of test samples for 24 hours, then cell-free medium was collected from each well and assayed for IFN-γ and IFN-α concentration. Two different oligonucleotides were used as controls: a first oligonucleotide known to have immunostimulatory activity (a 22mer oligonucleotide containing an ISS (“ISS+,” 5′-[…]-3′(SEQ ID NO:2)) and a second oligonucleotide of similar sequence but lacking immunostimulatory activity (“ISS−,” 5′-[…]-3′ (SEQ ID NO:1)). SAC (PANSORBIN® CalBiochem, 1/5000 dilution) and a untreated culture were used as additional positive and negative controls, respectively. SAC contains Staph. aureus (Cowan I) cell material. All samples were assayed in duplicate.
IFN-γ and IFN-α were assayed using CYTOSCREEN™ ELISA kits from BioSource International, Inc., according to the manufacturer's instructions.

[3] = system: human peripheral blood mononuclear cells (hPBMC); test: human PBMC assay, Example 6
Procedure, shortened: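 PBMCs at 2×10^6 cells/mL in RPMI with 10% human AB serum, 37° C., given 100% phosphorothioate oligonucleotides at 20 μg/ml, alone or with PLGA microcarriers at 250 μg/ml, added together or premixed 15 min. After 24 h, supernatant IFN-γ and IFN-α measured by ELISA in duplicate.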

[4] = system: human peripheral blood mononuclear cells (hPBMC); test: human PBMC assay, Example 7 (oligo 20 μg/ml, cPLGA 100 μg/ml)
Procedure, shortened: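 hPBMC from healthy donors at 2×10^6 cells/mL in RPMI 1640 + 10% human AB serum, 37° C; phosphorothioate oligos at 20 μg/ml, alone or premixed 15 min at room temperature with cationic PLGA microspheres at 100 μg/ml. IFN-γ and IFN-α in supernatants measured by ELISA after 24 h, duplicates.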

[5] = system: human peripheral blood mononuclear cells (hPBMC); test: human PBMC assay, Example 5 (96 well plates, premixed)

5′-TGACTGTGAACGTTCGAGATGA-3′ [ISS+, reference compound]
IFN-α ([1]; donor 28044): 401 pg/mL | IFN-γ ([1]; donor 28044): 2180 pg/mL | IFN-α ([1]; donor 28045): 39 pg/mL | IFN-γ ([1]; donor 28045): 669 pg/mL | IFN-α Mean ([1]; mean of donors 28044, 28045): 220 pg/mL | IFN-γ Mean ([1]; mean of donors 28044, 28045): 1425 pg/mL | IFN-α ([2]; donor 28033): 28 pg/mL | IFN-γ ([2]; donor 28033): 99 pg/mL | IFN-α ([2]; donor 28034): 106 pg/mL | IFN-γ ([2]; donor 28034): 223 pg/mL | IFN-α Mean ([2]; mean of donors 28033, 28034): 67 pg/mL | IFN-γ Mean ([2]; mean of donors 28033, 28034): 161 pg/mL | IFN-α ([3]; donor 28075): 0 pg/mL | IFN-γ ([3]; donor 28075): 48 pg/mL | IFN-α ([3]; donor 28076): 73 pg/mL | IFN-γ ([3]; donor 28076): 76 pg/mL | IFN-α ([3]; donor 28077): 54 pg/mL | IFN-γ ([3]; donor 28077): 15 pg/mL | IFN-α ([3]; donor 28078): 94 pg/mL | IFN-γ ([3]; donor 28078): 72 pg/mL | IFN-α Mean ([3]; mean of donors 28075-28078): 55 pg/mL | IFN-γ Mean ([3]; mean of donors 28075-28078): 53 pg/mL | IFN-α Mean ([3]; mean of volunteers 154-157): 12 pg/mL | IFN-γ Mean ([3]; mean of volunteers 154-157): 317 pg/mL | IFN-α ([3]; volunteer 154): 31 pg/mL | IFN-γ ([3]; volunteer 154): 211 pg/mL | IFN-α ([3]; volunteer 155): 0 pg/mL | IFN-γ ([3]; volunteer 155): 131 pg/mL | IFN-α ([3]; volunteer 156): 15 pg/mL | IFN-γ ([3]; volunteer 156): 86 pg/mL | IFN-α ([3]; volunteer 157): 0 pg/mL | IFN-γ ([3]; volunteer 157): 840 pg/mL | IFN-α ([4]; donor 28115): 54 pg/mL | IFN-γ ([4]; donor 28115): 156 pg/mL | IFN-α ([4]; donor 28116): 29 pg/mL | IFN-γ ([4]; donor 28116): 125 pg/mL | IFN-α ([4]; donor 28117): 17 pg/mL | IFN-γ ([4]; donor 28117): 497 pg/mL | IFN-α ([4]; donor 28118): 0 pg/mL | IFN-γ ([4]; donor 28118): 46 pg/mL | IFN-α Mean ([4]; mean of donors 28115-28118): 25 pg/mL | IFN-γ Mean ([4]; mean of donors 28115-28118): 206 pg/mL | IFN-α ([5]; donor 28051): 12 pg/mL | IFN-γ ([5]; donor 28051): 66 pg/mL | IFN-α ([5]; donor 28052): 28 pg/mL | IFN-γ ([5]; donor 28052): 20 pg/mL | IFN-α ([5]; donor 28053): 12 pg/mL | IFN-γ ([5]; donor 28053): 72 pg/mL | IFN-α ([5]; donor 28054): 12 pg/mL | IFN-γ ([5]; donor 28054): 23 pg/mL | IFN-α Mean ([5]; mean of donors 28051-28054): 16 pg/mL | IFN-γ Mean ([5]; mean of donors 28051-28054): 45 pg/mL
